The source of these data is patent publication US5086054A, “Novel arylcycloalkanepolyalkylamines” (SRI International, priority 1990, dated 1992).

One assay has as its system σ receptors. The conditions noted are these: literature; cited from earlier work.
The next assay deals with PCP RECEPTOR
As to the kind of experiment: PCP receptor binding assay ([3H]-TCP displacement, brain membranes). Also on record: species or system guinea-pig (male Hartley). The conditions noted are these: for IC50: read-out: PCP RECEPTOR IC50. As to the method: (§1) This example illustrates testing of compounds in receptor binding assays.
(§2) Frozen brains from male Hartley guinea-pigs were obtained from Pel-Freeze (Rogers, Arkansas).
(§3) The brains plus cerebella were homogenized in 10 volumes (v/w) of 0.1M, pH 7.4, ice-cold Tris-HCl buffer with a Brinkmann polytron at setting 4 for 20 seconds. The homogenates were centrifuged at 20,000×g for 20 minutes at 4° C. The pellets were suspended in 10 volumes of ice-cold water and, after sitting on ice for 10 minutes, were centrifuged 30 minutes at 20,000×g at 4° C. The resulting pellets were resuspended in the above Tris buffer in ratio 1:100 (w/v) for σ receptor assays or in 5 mM Tris-HCl having pH 7.4, for PCP receptor assays. The final suspension was homogenized with a dounce glass-glass tissue grinder Wheaton "200", at small clearance (B), with three strokes before use. Two milliter aliquots of the brain membrane preparation, containing 1.7 mg of protein, were incubated in quadruplicate for one hour at 23° C. with competing mixture of ligand and radioligand. For σ receptors, [^3 H]-d-SKF-10,047, 2 nM was used. For PCP receptors, [^3 H] TCP [^3 H]-1-[1-(2-thienyl)cyclohexyl]piperidine), 1 nM was used. The nonspecific bindings were defined by 0.1 mM d-SKF-10,047 and 0.1 mM phencyclidine respectively for σ and PCP receptors. After incubation, free ligand was separated from bound ligand by rapid filtration through Whatman GF/C filters. The filters had been soaked before use in isoamyl alcohol-saturated water to prevent nonspecific [^3 H]-d-SKF-10,047 binding to the filter. In the PCP receptor assay, the filter was soaked in 0.5% polyethylenimine to reduce the filter binding of [^3 H]-TCP. After filtration, the trapped tissue was washed three times with 4 ml aliquots of 0.1 M ice-cold Tris buffer at pH 7.4 for σ receptors and 5 mM, ice-cold Tris buffer pH 7.4 for PCP receptors. The filters were transferred to 5 ml of liquid scintillation fluid and the retained radioactivity was measured by liquid scintillation spectrometry.
Programs in Biomed. 17:107 (1983)].

A further assay has as its target T1, SIGMA RECEPTOR (Cavia porcellus, UniProt Q60492).
T1 construct: Two milliter aliquots of the brain membrane preparation, containing 1.7 mg of protein; tissue Pel-Freeze (Rogers, Arkansas); host or cells: guinea-pig brains plus cerebella, membranes
Briefly: Sigma receptor binding assay ([3H]-d-SKF-10,047 displacement, brain membranes). Also on record: species or system guinea-pig (male Hartley). The method, then:
as §1, §2, §3

Where [1] appears, read: Table 2, aryl ring substituents.
[2] abbreviates: Table 2, aryl ring substituents, read-out: SIGMA RECEPTOR IC50.
Setting [3] is: Table 1, mean ± error (n), read-out: SIGMA RECEPTOR IC50.
Where [4] appears, read: Table 1, slope of dose response curve.
The mark [5] stands for this setting: Table 3, cycloalkyl ring size, read-out: SIGMA RECEPTOR IC50.
Setting [6] is: SIGMA RECEPTOR IC50, Table 1, mean ± error (n).

Entries after “also recorded” stand apart in the source; their conditions may differ. Where two headings read alike, the source gives them in different places.

T1 sequence (Q60492 whole entry): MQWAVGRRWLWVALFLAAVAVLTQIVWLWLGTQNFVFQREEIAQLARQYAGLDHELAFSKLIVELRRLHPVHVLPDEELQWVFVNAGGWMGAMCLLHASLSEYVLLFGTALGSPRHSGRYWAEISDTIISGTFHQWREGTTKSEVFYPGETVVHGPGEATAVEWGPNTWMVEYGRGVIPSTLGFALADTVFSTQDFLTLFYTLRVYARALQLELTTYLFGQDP

Take `CC(C)=CCN1CCC2(C)c3cc(O)ccc3CC1C2C` (stereo not drawn) [pentazocine, 2-dimethylallyl-5,9-dimethyl-2-hydroxy-benzomorphan]: the “affinity / binding at σ receptors (in words)” value (shortened to “affinity / binding”) in the assay on σ receptors was “bind to σ receptors”.
On to `CC1C2Cc3ccc(O)cc3C1(C)CCN2CC1CC1` (stereo not drawn) [cyclazocine, 3-(cyclopropylmethyl)-1,2,3,4,5,6-hexahydro-6,11-dimethyl-2,6-methano-3-benzazocin-8-ol], for which the “affinity / binding” value in the assay with σ receptors is “bind to σ receptors”.
Turning to `CCCN1CCC[C@H](c2cccc(O)c2)C1` [(+)-3-PPP, (+)-3-(3-hydroxyphenyl)-N-(1-propyl)piperidine], in the assay with σ receptors, the “affinity / binding” value was “bind to σ receptors”.
For `C=CCN1CC[C@@]23CCCC[C@@H]2[C@@H]1Cc1ccc(O)cc13` [dextrallorphan], in the assay with σ receptors, the “affinity / binding” value is listed as “bind to σ receptors”.
One may read the IC50 as the concentration that gives 50% inhibition. Consider `O=[N+]([O-])c1ccc(C2(CN3CCCC3)CCCCC2)cc1` [Compound 31], for which, in the assay on PCP RECEPTOR, the “potency at PCP receptors (in words)” value was “inactive at PCP sites”. Further, the IC50 on PCP RECEPTOR (setting [1]) is over 25 µM. At SIGMA RECEPTOR, the “potency at σ receptors (in words)” value is on record as “somewhat potent” and the “selectivity for σ receptors (in words)” value is “very selective for σ receptors”. The “SIGMA RECEPTOR SLOPE” value at SIGMA RECEPTOR (Table 2) came out at 0.65 ± 0.05. For the same compound, on SIGMA RECEPTOR (setting [2]), the IC50 came to 0.282 µM.
As for `C=CCN1CCC2(C)c3cc(O)ccc3CC1C2C` (stereo not drawn) [N-allylnormetazocine], the “affinity / binding” value in the assay with σ receptors is reported as “bind to σ receptors”.
As for `Oc1cccc(C2(CN3CCOCC3)CCCCC2)c1` [Compound 36], the IC50 on PCP RECEPTOR (setting [1]) and at SIGMA RECEPTOR (setting [2]) was over 25 µM in each case.
Take `c1ccc(C2(CN3CCOCC3)CCCCC2)cc1` [Compound 11]: the “potency at PCP receptors (in words)” value in the assay with PCP RECEPTOR was “inactive in the PCP receptor assay”. In addition, the IC50 at PCP RECEPTOR (Table 1, mean ± error (n)) is over 25 µM; at PCP RECEPTOR (setting [1]) it was over 25 µM; at SIGMA RECEPTOR (setting [3]), 0.71 µM. Moreover, the “potency at σ receptors (in words)” value on SIGMA RECEPTOR was “increased potency for σ receptors”. Also, the “SIGMA RECEPTOR SLOPE” value on SIGMA RECEPTOR (setting [4]) and on SIGMA RECEPTOR (Table 2) was 0.60 ± 0.03 each time.
Regarding `CN(C)CC1(c2ccccc2)CCCCC1` [Compound 18], in the assay on PCP RECEPTOR, the “potency at PCP receptors (in words)” value was “inactive in the PCP receptor assay”. The concentration for half-maximal inhibition (IC50) was over 25 µM at PCP RECEPTOR (Table 1, mean ± error (n)); over 25 µM on PCP RECEPTOR (setting [1]); 4.13 µM on SIGMA RECEPTOR (setting [3]); 4.13 µM on SIGMA RECEPTOR (setting [2]). In addition, on SIGMA RECEPTOR, the “potency at σ receptors (in words)” value is “increased potency for σ receptors”. Besides, the “SIGMA RECEPTOR SLOPE” value at SIGMA RECEPTOR (setting [4]) and at SIGMA RECEPTOR (Table 2) was 0.85 ± 0.07 throughout.
Take `Cc1ccc(C2(CN3CCCCC3)CCCCC2)cc1` [Compound 23]: the figures for the IC50 on PCP RECEPTOR (setting [1]) and on SIGMA RECEPTOR (setting [2]) were over 25 µM and 0.223 µM, respectively. Moreover, the “potency at σ receptors (in words)” value on SIGMA RECEPTOR is on record as “slightly lower σ receptor potencies”. In addition, the “selectivity for σ receptors (in words)” value at SIGMA RECEPTOR is recorded as “substantially increases selectivity for σ receptors”. In addition, the “SIGMA RECEPTOR SLOPE” value at SIGMA RECEPTOR (Table 2) turned out to be 0.69 ± 0.01.
In the case of `C[N+](C)(C)CCOC(=O)C1(c2ccccc2)CCCCC1` [Compound 20], the “potency at PCP receptors (in words)” value with PCP RECEPTOR was “inactive in the PCP assay; also recorded: did not increase potency for PCP receptors”. The IC50 on PCP RECEPTOR (Table 1, mean ± error (n)) is over 25 µM; on SIGMA RECEPTOR (setting [3]), 12.3 µM. Also, on SIGMA RECEPTOR (setting [4]), the “SIGMA RECEPTOR SLOPE” value is given as 1.22 ± 0.15.
Consider `c1ccc(C2(CN3CCCCC3)CCCC2)cc1` [Compound 44], for which the IC50 was over 25 µM at PCP RECEPTOR (Table 3, cycloalkyl ring size) and 0.995 µM on SIGMA RECEPTOR (setting [5]). Further, the “SIGMA RECEPTOR SLOPE” value at SIGMA RECEPTOR (Table 3) stood at 1.03 ± 0.04.
In the same order, the values of `c1ccc(C2(CN3CCCCC3)CC2)cc1` [Compound 45] are 8.84 µM, 5.59 µM and 0.83 ± 0.19.
Consider `CCN(CC)C1(c2ccccc2)CCCCC1` [Compound 13, N,N-diethyl-1-phenylcyclohexylamine, reference compound], for which the IC50 is 0.331 ± 0.034 µM on PCP RECEPTOR (Table 1, mean ± error (n)) and 0.573 µM at SIGMA RECEPTOR (setting [6]). In addition, the “SIGMA RECEPTOR SLOPE” value on SIGMA RECEPTOR (setting [4]) is on record as 0.40 ± 0.07.
With `COc1ccc(C2(CN3CCCC3)CCCCC2)cc1OC` [Compound 35], on PCP RECEPTOR (setting [1]), the half-maximal inhibitory concentration (IC50) is over 25 µM. For the same compound, on SIGMA RECEPTOR, the “potency at σ receptors (in words)” value was “poor to reasonable potency at σ sites” and the “selectivity for σ receptors (in words)” value is recorded as “high selectivity for σ receptors”. The “SIGMA RECEPTOR SLOPE” value on SIGMA RECEPTOR (Table 2) is given as 0.66 ± 0.07. Also, the IC50 on SIGMA RECEPTOR (setting [2]) is 1.32 µM.
As to `c1ccc(C2(N3CCCC3)CCCCC2)cc1` [Compound 5, 1-(1-phenylcyclohexyl)pyrrolidine, reference compound], the half-inhibitory concentration (IC50) on PCP RECEPTOR (Table 1, mean ± error (n)) is 0.11 ± 0.006 µM; at SIGMA RECEPTOR (setting [6]), 7.73 µM. Besides, the “SIGMA RECEPTOR SLOPE” value on SIGMA RECEPTOR (setting [4]) came out at 0.83 ± 0.06.
As to `CN(C)CC1(c2cccc(O)c2)CCCCC1` [Compound 40], the 50% inhibitory concentration (IC50) at PCP RECEPTOR (setting [1]) was over 25 µM; on SIGMA RECEPTOR (setting [2]), 10.1 µM. In addition, the “SIGMA RECEPTOR SLOPE” value on SIGMA RECEPTOR (Table 2) was found to be 0.61 ± 0.01.
Turning to `Oc1cccc(C2(CN3CCCC3)CCCCC2)c1` [Compound 29], on PCP RECEPTOR (setting [1]), the half-inhibitory concentration (IC50) turned out to be 1.32 µM. Besides, on SIGMA RECEPTOR, the “potency at σ receptors (in words)” value was “only slight effect on σ receptor potency” and the “selectivity for σ receptors (in words)” value is given as “selectivity for σ receptors was poor”. Moreover, the “SIGMA RECEPTOR SLOPE” value at SIGMA RECEPTOR (Table 2) is recorded as 0.80 ± 0.07. In addition, the IC50 on SIGMA RECEPTOR (setting [2]) worked out at 1.08 µM.
As for `c1ccc(C2(CN3CCCCC3)CCCCC2)cc1` [Compound 2], the “potency at PCP receptors (in words)” value in the assay with PCP RECEPTOR is listed as “reduced the potency in the PCP receptor assay”. Moreover, the IC50 at PCP RECEPTOR (Table 1, mean ± error (n)) came to 1.83 µM; at PCP RECEPTOR (setting [1]), 1.83 µM; at PCP RECEPTOR (Table 3, cycloalkyl ring size), 1.83 µM; on SIGMA RECEPTOR (setting [5]), 0.104 µM. Moreover, the “decreased potency for PCP receptors” value with PCP RECEPTOR (relative to PCP (1)) was “approximately 40 times”. For the same compound, the “potency at σ receptors (in words)” value at SIGMA RECEPTOR is given as “increased the potency of the compound in the σ receptor assay”. The “SIGMA RECEPTOR SLOPE” value came to 0.66 ± 0.1 at SIGMA RECEPTOR (setting [4]), 0.66 ± 0.1 at SIGMA RECEPTOR (Table 2) and 0.66 ± 0.01 on SIGMA RECEPTOR (Table 3). Also, the “increased potency for σ receptors” value on SIGMA RECEPTOR (relative to PCP (1)) is reported as “about 80 times”.
`Clc1cccc(C2(CN3CCCC3)CCCCC2)c1` [Compound 32]: the IC50 at PCP RECEPTOR (setting [1]) stood at 0.867 ± 0.009 µM; on SIGMA RECEPTOR (setting [2]), 0.248 µM. Moreover, on SIGMA RECEPTOR (Table 2), the “SIGMA RECEPTOR SLOPE” value amounted to 0.73 ± 0.16.
Consider `COc1ccc(C2(CN3CCCCC3)CCCCC2)cc1` [Compound 27], for which, on PCP RECEPTOR (setting [1]), the IC50 is over 25 µM. In addition, on SIGMA RECEPTOR, the “potency at σ receptors (in words)” value was “slightly lower σ receptor potencies” and the “selectivity for σ receptors (in words)” value is “substantially increases selectivity for σ receptors”. Besides, the “SIGMA RECEPTOR SLOPE” value on SIGMA RECEPTOR (Table 2) worked out at 0.69 ± 0.04. The IC50 on SIGMA RECEPTOR (setting [2]) was 0.221 µM.
